The values below are quoted from earlier work in patent US20050272717A1, “Treatment of aromatase inhibitor therapy-related osteoporosis” (priority 2004, published 2005).

One data set has as its system bone. The note with it: preclinical studies.

Consider `Cc1c(-c2ccc(O)cc2)n(Cc2ccc(OCCN3CCCCCC3)cc2)c2ccc(O)cc12` [bazedoxifene, 1-[4-(2-azepan-1-yl-ethoxy)-benzyl]-2-(4-hydroxy-phenyl)-3-methyl-1H-indol-5-ol], for which the “estradiol-stimulated proliferation of breast cancer cells” value in the data set on breast cancer cells was “inhibits”. Besides, the compressive bone strength result in the data set with bone is reported as “improved”. For the same compound, the histomorphometric profile result in the data set on bone (compared with raloxifene) is recorded as “superior to that of raloxifene”.
